In US20150246898A1, “METALLOENZYME INHIBITOR COMPOUNDS” (DOW AGROSCIENCES LLC, priority 2012, published 2015):
≈ marks a conversion by molar mass, not a printed value.

Columns and labels:
T. rubrum = experiment: Minimum Inhibitory Concentration (MIC) (T. rubrum), CLSI M27-A2; assay type: cell-based; conditions: Trichophyton rubrum; about 50% growth reduction, approx. 96 h at 35 °C, RPMI+MOPS
Method: Compounds of the present disclosure were assessed for their ability to inhibit the growth of common strains of fungus, T. rubrum using a standardized procedure (CLSI M27-A2). Stock solutions of the test compounds and standards were prepared in DMSO at 1,600 μg/mL (T. rubrum). Eleven, serial, one-half dilutions of compounds were prepared in 96-well plates in RPMI+MOPS. The assay concentration ranges were 8-0.001 μg/mL (T. rubrum). Cell suspensions of T. rubrum were prepared and added to each well at concentrations of approximately 3.7×10^3 colony-forming-units per milliliter (cfu/mL). All testing was in duplicate. The inoculated plates were incubated for approximately 96 h at 35±1° C. At the completion of incubation the wells of each plate were evaluated visually for the presence of fungal growth. […] For voriconazole the MIC was the concentration which reduced T rubrum growth by 50% (per CLSI, M27-A2). For QC purposes C. krusei isolate ATCC 6258 (4.0×10^3 cfu/mL) was included in the VOR assay.

[1] = test system: Septoria tritici (ATCC 26517); experiment: Minimum Inhibitory Concentration (MIC) vs. Septoria tritici, CLSI-based microdilution; assay type: cell-based; conditions: Zymoseptoria tritici, ATCC26517, 168 h; MIC = 50% reduction in growth of S. tritici, 7 days at 22 °C, RPMI/MOPS, 1% DMSO; read-out: Septoria Rating (MIC)
Method: Compounds of the present disclosure were assessed for their ability to inhibit the growth of a common strain of the fungal plant pathogen Septoria tritici (ATCC 26517) using a procedure based on a Clinical and Laboratory Standards Institute (CLSI) microdilution assay protocol for filamentous fungi. Stock solutions of the test compounds and standards were prepared in DMSO at 6400 μg/mL. Each stock solution was used to prepare a 2-fold dilution series ranging from 16 to 0.016 μg/mL (total of 11 compound concentrations) in RPMI-1640 (Roswell Park Memorial Institute) medium containing 3-(N-morpholino)propanesulfonic acid (MOPS) buffer and 2% DMSO. A 100 μL aliquot of the dilutions was added to columns 1 (16 μg/mL compound) through 11 (0.016 μg/mL compound) of a 96-well microtiter plate. This format was replicated in a second row of the microtiter plate. Thus, each microtiter plate could include 11 concentrations of four test or control compounds replicated twice. A 100 μL aliquot of RPMI-1640/MOPS/2% DMSO medium was added to column 12 (no compound control) of the microtiter plate. A fresh culture of S. tritici was used to prepare a solution of approximately 5×10^4 colony-forming units per milliliter (cfu/mL) in RPMI/MOPS medium without DMSO. A 100 μL aliquot of this solution was added to all 96 wells in the microtiter plate. […] In each case of Table 3 the Septoria rating scale is as follows: […]

[2] = test system: Puccinia recondita tritici = Puccinia triticina (PUCCRT); experiment: Fungicidal activity vs. leaf rust on wheat plants (1-day protectant spray); assay type: in vivo; conditions: wheat (variety Yuma) sprayed at 50 ppm, inoculated next day, disease severity evaluated 7-9 days later, read-out: Puccinia Rating (% Disease Control @ 50 ppm)
Text: Each pot contained 3-8 seedlings. These plants were sprayed until wet with the formulated test compounds. The compounds were formulated at 50 ppm in 10 vol. % acetone plus 90 vol. % Triton X water (deionized water 99.99 wt %+0.01 wt % Triton X100), giving a “formulated test compound.” Formulated test compounds were applied to plants using a turn table sprayer fitted with two opposing air atomization nozzles which delivered approximately 1500 L/ha of spray volume. On the following day, the leaves were inoculated with an aqueous spore suspension of Puccinia recondita tritici and the plants were kept in high humidity overnight to permit spores to germinate and infect the leaf. The plants were then transferred to a greenhouse until disease developed on untreated control plants. Disease severity was evaluated 7-9 days later, depending on the speed of disease development. In each case of Table 3, the Puccinia rating scale is as follows: […]

| SMILES | MIC (T. rubrum) [µg/mL] | MIC [1] [µg/mL] | pest or weed control at 50 ppm [2] [%] |
| --- | --- | --- | --- |
| OC(c1cncnc1)(c1ccc(F)cc1F)C(F)(F)c1ccc(Br)cn1 (racemic) [Example 1, 2-(5-bromopyridin-2-yl)-1-(2,4-difluorophenyl)-2,2-difluoro-1-(pyrimidin-5-yl)ethanol] | 0.125 (≈ 0.292 µM) | 0.5 to 1.5 (≈ 1.17 to 3.5 µM) |  |
| OC(c1cncnc1)(c1ccc(F)cc1F)C(F)(F)c1ccc(C#Cc2ccc(F)cc2)cn1 (racemic) [Example 2, 1-(2,4-difluorophenyl)-2,2-difluoro-2-(5-((4-fluorophenyl)ethynyl)pyridin-2-yl)-1-(pyrimidin-5-yl)ethanol] | 0.25 (≈ 0.535 µM) | ≤ 0.5 | 80 to 100 |
| O=[N+]([O-])c1ccc(C#Cc2ccc(C(F)(F)C(O)(c3cncnc3)c3ccc(F)cc3F)nc2)cc1 (racemic) [Example 16, 1-(2,4-Difluorophenyl)-2,2-difluoro-2-(5-((4-nitrophenyl)ethynyl)pyridin-2-yl)-1-(pyrimidin-5-yl)ethanol] |  | ≤ 0.5 | 60 to 79 |
| N#Cc1cccc(C#Cc2ccc(C(F)(F)C(O)(c3cncnc3)c3ccc(F)cc3F)nc2)c1 (racemic) [Example 18, 3-((6-(2-(2,4-Difluorophenyl)-1,1-difluoro-2-hydroxy-2-(pyrimidin-5-yl)ethyl)pyridin-3-yl)ethynyl)benzonitrile] |  | ≤ 0.5 | 80 to 100 |
| Nc1ccc(C#Cc2ccc(C(F)(F)C(O)(c3cncnc3)c3ccc(F)cc3F)nc2)cc1 (racemic) [Example 20, 2-(5-((4-Aminophenyl)ethynyl)pyridin-2-yl)-1-(2,4-difluorophenyl)-2,2-difluoro-1-(pyrimidin-5-yl)ethanol] |  | ≤ 0.5 | 60 to 79 |
| OC(c1cncnc1)(c1ccc(F)cc1F)C(F)(F)c1ccc(C#Cc2ccc(OC(F)F)cc2)cn1 (racemic) [Example 21, 2-(5-((4-(Difluoromethoxy)phenyl)ethynyl)pyridin-2-yl)-1-(2,4-difluorophenyl)-2,2-difluoro-1-(pyrimidin-5-yl)ethanol] |  | ≤ 0.5 | 80 to 100 |
| OC(c1nc[nH]n1)(c1ccc(F)cc1F)C(F)(F)c1ccc(C#Cc2ccc(F)cc2)cn1 (racemic) [Example 27] |  | > 4 | < 40 |
| OC(c1cncnc1)(c1ccc(F)cc1F)C(F)(F)c1ccc(OCC(F)(F)F)cn1 (racemic) [Example 34] |  | 0.5 to 1.5 (≈ 1.12 to 3.35 µM) | 80 to 100 |
| CC(C)C(O)(c1cncnc1)C(F)(F)c1ccc(C#Cc2ccc(C#N)cc2)cn1 (racemic) [Example 35] |  | 0.5 to 1.5 (≈ 1.24 to 3.71 µM) | < 40 |
| N#Cc1ccc(C#Cc2ccc(C(F)(F)C(O)(c3cncnc3)c3ccc(F)cc3F)nc2)s1 (racemic) [Example 37] |  | ≤ 0.5 | 60 to 79 |
| O=C(Nc1ccc(C#Cc2ccc(C(F)(F)C(O)(c3cncnc3)c3ccc(F)cc3F)nc2)cc1)C(F)(F)F (racemic) [Example 38] |  | 0.5 to 1.5 (≈ 0.892 to 2.68 µM) | < 40 |
| OC(c1cncnc1)(c1ccc(F)cc1F)C(F)(F)c1ccc(OCc2ccc(Cl)cc2)cn1 (racemic) [Example 41] |  | ≤ 0.5 | 80 to 100 |
| COc1ccc(Oc2ccc(C(F)(F)C(O)(c3cncnc3)c3ccc(F)cc3F)nc2)cc1 (racemic) [Example 42] |  | 0.5 to 1.5 (≈ 1.06 to 3.18 µM) | 80 to 100 |
| N#Cc1ccc(C#Cc2ccc(C(F)(F)C(O)(c3ccc(Cl)cc3)c3cncnc3)nc2)cc1 (racemic) [Example 43] |  | ≤ 0.5 | 60 to 79 |
| OC(c1cncnc1)(c1ccc(F)cc1F)C(F)(F)c1ccc(Oc2cccc(Cl)c2)cn1 (racemic) [Example 47] |  | 0.5 to 1.5 (≈ 1.05 to 3.15 µM) | 80 to 100 |
| CC(C)(C)C(O)(c1cncnc1)C(F)(F)c1ccc(C#Cc2ccc(F)cc2)cn1 (racemic) [Example 48] |  | ≤ 0.5 | < 40 |
| OC(c1cncnc1)(c1ccc(F)cc1F)C(F)(F)c1ccc(OCc2ccc(Cl)c(F)c2)cn1 (racemic) [Example 51] |  | 0.5 to 1.5 (≈ 0.985 to 2.95 µM) | 60 to 79 |
| Nc1ccc(C#Cc2ccc(C(F)(F)C(O)(c3ccc(Cl)cc3)c3cncnc3)nc2)cc1 (racemic) [Example 55] |  | 0.5 to 1.5 (≈ 1.08 to 3.24 µM) | < 40 |
| OC(c1cncnc1)(c1ccc(F)cc1F)C(F)(F)c1ccc(OCc2ccc(F)c(F)c2)cn1 (racemic) [Example 60] |  | 0.5 to 1.5 (≈ 1.02 to 3.05 µM) | 60 to 79 |
| CC(C)(C)C(O)(c1cncnc1)C(F)(F)c1ccc(C#Cc2ccc(Cl)cc2)cn1 (racemic) [Example 62] |  | ≤ 0.5 | < 40 |
| CC(C)C(O)(c1cncnc1)C(F)(F)c1ccc(C#Cc2ccc(Cl)cc2)cn1 (racemic) [Example 64] |  | ≤ 0.5 | < 40 |
| OC(c1cncnc1)(c1ccc(F)cc1F)C(F)(F)c1ccc(OCc2ccc(C(F)(F)F)cc2)cn1 (racemic) [Example 65] |  | ≤ 0.5 | 80 to 100 |
| CC(C)C(O)(c1cncnc1)C(F)(F)c1ccc(C#Cc2cccc(C#N)c2)cn1 (racemic) [Example 67] |  | ≤ 0.5 | < 40 |
| OC(c1cncnc1)(C1CC1)C(F)(F)c1ccc(C#Cc2ccc(F)cc2)cn1 (racemic) [Example 70, 1-Cyclopropyl-2,2-difluoro-2-(5-((4-fluorophenyl)ethynyl)pyridin-2-yl)-1-(pyrimidin-5-yl)ethanol] |  | ≤ 0.5 | 80 to 100 |
| OC(c1cncnc1)(c1ccc(F)cc1F)C(F)(F)c1ccc(OCc2ccc(Cl)c(Cl)c2)cn1 (stereo not shown) [Example 52] |  | 0.5 to 1.5 (≈ 0.954 to 2.86 µM) | 60 to 79 |
| C[C@@H](c1ncncc1F)[C@](O)(Cn1cncn1)c1ccc(F)cc1F [Voriconazole, voriconazole, reference compound] | 0.062 (≈ 0.177 µM) |  |  |
